Results: the CheMixHub ionic liquid set

Experiment: xn = mol fraction of the nth substance listed

OC1OC[C@@H](O)[C@H](O)[C@H]1O (some centres not stated) + O + CCCCCC[n+]1ccn(C)c1.[Br-]
298.15 K, 101 kPa
Conditions	viscosity [mPa·s]
x1 = 0.0001973, x3 = 0.001843	0.957
x1 = 0.000198, x3 = 0.003653	1.007
x1 = 0.0002099, x3 = 0.005424	1.054
x1 = 0.0002123, x3 = 0.007151	1.106
x1 = 0.0003779, x3 = 0.001843	0.961
x1 = 0.0003808, x3 = 0.003652	1.011
x1 = 0.0003928, x3 = 0.005423	1.059
x1 = 0.0004009, x3 = 0.00715	1.112
x1 = 0.0005548, x3 = 0.001843	0.965
x1 = 0.000588, x3 = 0.003652	1.016
x1 = 0.0005968, x3 = 0.005422	1.064
x1 = 0.0005973, x3 = 0.007149	1.119
x1 = 0.000739, x3 = 0.001842	0.97
x1 = 0.0007594, x3 = 0.003651	1.02
x1 = 0.0007857, x3 = 0.007147	1.124
x1 = 0.0007911, x3 = 0.005421	1.069
x1 = 0.0009323, x3 = 0.001842	0.974
x1 = 0.0009495, x3 = 0.00365	1.025
x1 = 0.0009642, x3 = 0.00542	1.074
x1 = 0.0009957, x3 = 0.007146	1.13
x1 = 0.001116, x3 = 0.001842	0.979
x1 = 0.001147, x3 = 0.005419	1.079
x1 = 0.001153, x3 = 0.003649	1.029
x1 = 0.001184, x3 = 0.007144	1.134
x1 = 0.0013, x3 = 0.001841	0.982
x1 = 0.001326, x3 = 0.003649	1.034
x1 = 0.001352, x3 = 0.005418	1.083
x1 = 0.001359, x3 = 0.007143	1.138
x1 = 0.001475, x3 = 0.001841	0.986
x1 = 0.001497, x3 = 0.003648	1.039
x1 = 0.001552, x3 = 0.005417	1.089
x1 = 0.001588, x3 = 0.007142	1.143
x1 = 0.001657, x3 = 0.001841	0.99
x1 = 0.001681, x3 = 0.003648	1.042
x1 = 0.001708, x3 = 0.005416	1.09
x1 = 0.001731, x3 = 0.00714	1.148

CCCCn1cc[n+](C)c1C.O=S(=O)([N-]S(=O)(=O)C(F)(F)F)C(F)(F)F + O=C1CCCO1
100 kPa, frequency 0.005 MHz
Conditions	electrical conductivity [S/m]
293.15 K, x2 = 0.1014	0.207
293.15 K, x2 = 0.3	0.302
293.15 K, x2 = 0.8001	1.12
298.15 K, x2 = 0.8996	1.3
303.15 K, x2 = 0.3	0.451
303.15 K, x2 = 0.9468	1.01
308.15 K, x2 = 0.3	0.538
308.15 K, x2 = 0.7012	1.28
313.15 K, x2 = 0.1014	0.479
313.15 K, x2 = 0.7012	1.43
318.15 K, x2 = 0	0.51
318.15 K, x2 = 0.7012	1.58
323.15 K, x2 = 0	0.599

O=S(=O)([N-]S(=O)(=O)C(F)(F)F)C(F)(F)F.[Cs+] + O=S(=O)([N-]S(=O)(=O)C(F)(F)F)C(F)(F)F.[Li+]
100 kPa, frequency 1 MHz, x2 = 0.07
Conditions	electrical conductivity [S/m]
403.1 K	0.673
413.1 K	0.898
423.5 K	1.16
432.7 K	1.44
442.1 K	1.77
452.2 K	2.12
462.6 K	2.52
473.6 K	2.94
482.8 K	3.37
492 K	3.86
502.1 K	4.33
512.5 K	4.85
523.1 K	5.37
531.3 K	5.9
542.9 K	6.41
551.8 K	7
560.9 K	7.52
571.1 K	8.14

100 kPa, x2 = 0.07
Conditions	viscosity [mPa·s]
403.2 K	97
413.2 K	69.8
423.7 K	51.5
432.9 K	39.2
442.5 K	27.9
452.5 K	23
463 K	18.9
473.9 K	15.8
483.1 K	13.1
492.6 K	11.1
502.5 K	9.71
512.8 K	8.54
523.6 K	7.41
531.9 K	6.64
543.5 K	6.03
552.5 K	5.39
561.8 K	5.01

O=S(=O)([N-]S(=O)(=O)C(F)(F)F)C(F)(F)F.[K+] + O=S(=O)([N-]S(=O)(=O)C(F)(F)F)C(F)(F)F.[Li+]
100 kPa, frequency 1 MHz, x2 = 0.43
Conditions	electrical conductivity [S/m]
442.3 K	0.359
452.3 K	0.479
462.7 K	0.624
473.6 K	0.794
483 K	0.99
492.3 K	1.19
502.3 K	1.42
512.6 K	1.66
523.4 K	1.93
531.6 K	2.25
543 K	2.48
552.2 K	2.77
561.6 K	3.1
571.3 K	3.53

100 kPa, x2 = 0.43
Conditions	viscosity [mPa·s]
442.5 K	179
452.5 K	127
463 K	90
473.9 K	63.7
483.1 K	50.6
492.6 K	39.1
502.5 K	31.6
512.8 K	26.4
523.6 K	21.8
531.9 K	18.4
543.5 K	14.6
552.5 K	13.6
561.8 K	12.5

FC(F)C(F)(F)COC(F)(F)C(F)F + O=S(=O)([N-]S(=O)(=O)C(F)(F)F)C(F)(F)F.[Li+] + O=S1(=O)CCCC1
303.15 K, 101 kPa
Conditions	electrical conductivity [S/m]
x2 = 0.1429, x3 = 0.5714	0.073
x2 = 0.1818, x3 = 0.5455	0.09
x2 = 0.25, x3 = 0.5	0.09
x2 = 0.4, x3 = 0.4	0.079

O=S(=O)([N-]S(=O)(=O)C(F)(F)F)C(F)(F)F.[Li+] + O=S(=O)([O-])C(F)(F)F.[Li+] + O
viscosity [mPa·s], 100 kPa
Conditions	x2 = 0, x1 = 0.112	x2 = 0, x1 = 0.1896	x2 = 0, x1 = 0.2333	x2 = 0, x1 = 0.2547	x2 = 0, x1 = 0.2741
298.15 K	5.2	15.8	30.7	42.3	54.1
308.15 K	4.3	11.5	21.5	29	36.1
318.15 K	3.4	8.6	15.8	20.9	25.5
328.15 K	2.8	6.6	12	15.6	18.7

O=S(=O)([N-]S(=O)(=O)C(F)(F)F)C(F)(F)F.[Li+] + OCCO
Conditions	electrical conductivity [S/m]
333 K, 100 kPa, frequency 1 MHz, x1 = 0.5	0.8

Conditions	viscosity [mPa·s]
333 K, 100 kPa, x1 = 0.5	21.68

CC[N+]1(C)CCCC1.[Br-] + OC[C@H]1O[C@@H]2O[C@H]3[C@H](O)[C@@H](O)[C@@H](O[C@H]4[C@H](O)[C@@H](O)[C@@H](O[C@H]5[C@H](O)[C@@H](O)[C@@H](O[C@H]6[C@H](O)[C@@H](O)[C@@H](O[C@H]7[C@H](O)[C@@H](O)[C@@H](O[C@H]8[C@H](O)[C@@H](O)[C@@H](O[C@H]1[C@H](O)[C@H]2O)O[C@@H]8CO)O[C@@H]7CO)O[C@@H]6CO)O[C@@H]5CO)O[C@@H]4CO)O[C@@H]3CO + O
298.15 K, 100 kPa
Conditions	viscosity [mPa·s]
x2 = 1.587e-05, x1 = 0.001261	1.38
x2 = 1.587e-05, x1 = 0.001531	1.4
x2 = 1.588e-05, x1 = 0.0009911	1.37
x2 = 4.77e-05, x1 = 0.001534	1.45
x2 = 4.771e-05, x1 = 0.001264	1.42
x2 = 4.772e-05, x1 = 0.0009931	1.39

CCCCCCCCCC[n+]1ccn(C)c1.[Cl-] + OC[C@H]1O[C@@](CO)(O[C@H]2O[C@H](CO)[C@@H](O)[C@H](O)[C@H]2O)[C@@H](O)[C@@H]1O + O
298.15 K, 101.3 kPa
Conditions	electrical conductivity [S/m]
x2 = 0, x1 = 6.46e-06	0.00385
x2 = 0, x1 = 9.55e-06	0.00548
x2 = 0, x1 = 1.262e-05	0.00708
x2 = 0, x1 = 1.582e-05	0.00872
x2 = 0, x1 = 1.894e-05	0.0103
x2 = 0, x1 = 2.2e-05	0.0118
x2 = 0, x1 = 2.507e-05	0.01334
x2 = 0, x1 = 2.8e-05	0.0148
x2 = 0, x1 = 3.092e-05	0.0162
x2 = 0, x1 = 3.384e-05	0.0176
x2 = 0.003591, x1 = 7.14e-06	0.00361
x2 = 0.003591, x1 = 1.162e-05	0.00554
x2 = 0.003591, x1 = 1.987e-05	0.00901
x2 = 0.003591, x1 = 2.367e-05	0.0106
x2 = 0.003591, x1 = 2.764e-05	0.01214
x2 = 0.003591, x1 = 3.131e-05	0.0136
x2 = 0.003591, x1 = 3.559e-05	0.01531
x2 = 0.003591, x1 = 3.942e-05	0.0168
x2 = 0.003591, x1 = 4.357e-05	0.0184
x2 = 0.007156, x1 = 4.94e-06	0.00234
x2 = 0.007156, x1 = 9.37e-06	0.0041
x2 = 0.007156, x1 = 1.394e-05	0.00589
x2 = 0.007156, x1 = 1.816e-05	0.00752
x2 = 0.007156, x1 = 2.215e-05	0.00905
x2 = 0.007156, x1 = 2.62e-05	0.0106
x2 = 0.007156, x1 = 3.004e-05	0.01205
x2 = 0.007156, x1 = 3.378e-05	0.0135
x2 = 0.007156, x1 = 3.734e-05	0.0148
x2 = 0.007156, x1 = 4.078e-05	0.01606
x2 = 0.0107, x1 = 8.82e-06	0.00336
x2 = 0.0107, x1 = 1.279e-05	0.00469
x2 = 0.0107, x1 = 1.666e-05	0.00596
x2 = 0.0107, x1 = 2.02e-05	0.00712
x2 = 0.0107, x1 = 2.387e-05	0.00828
x2 = 0.0107, x1 = 2.723e-05	0.00939
x2 = 0.0107, x1 = 3.056e-05	0.0105
x2 = 0.0107, x1 = 3.344e-05	0.01139
x2 = 0.0107, x1 = 3.674e-05	0.0124
x2 = 0.0107, x1 = 3.975e-05	0.0134
x2 = 0.01421, x1 = 8.46e-06	0.00279
x2 = 0.01421, x1 = 1.229e-05	0.00388
x2 = 0.01421, x1 = 1.596e-05	0.00491
x2 = 0.01421, x1 = 1.986e-05	0.00599
x2 = 0.01421, x1 = 2.304e-05	0.00688
x2 = 0.01421, x1 = 2.641e-05	0.0078
x2 = 0.01421, x1 = 2.985e-05	0.00874
x2 = 0.01421, x1 = 3.276e-05	0.00953
x2 = 0.01421, x1 = 3.602e-05	0.01042
x2 = 0.01421, x1 = 3.892e-05	0.01121
x2 = 0.0177, x1 = 1.052e-05	0.00291
x2 = 0.0177, x1 = 1.539e-05	0.00407
x2 = 0.0177, x1 = 2e-05	0.00515
x2 = 0.0177, x1 = 2.419e-05	0.00614
x2 = 0.0177, x1 = 2.851e-05	0.00714
x2 = 0.0177, x1 = 3.269e-05	0.0081
x2 = 0.0177, x1 = 3.635e-05	0.00895
x2 = 0.0177, x1 = 4.032e-05	0.00985
x2 = 0.0177, x1 = 4.414e-05	0.0107

CCn1cc[nH+]c1.O=S(=O)([N-]S(=O)(=O)C(F)(F)F)C(F)(F)F + c1c[nH]cn1
Conditions	electrical conductivity [S/m]
303.15 K, 100 kPa, x1 = 0.948	0.427
